In patent US20260335341A1, “METHODS FOR TREATING PAEDIATRIC NEUROLOGICAL DISORDERS” (Neurotech International Limited, priority 2022, published 2026):
Where “and” joins values, the source holds several entries; their conditions need not be identical. Equal entries are not always repeated. Where two headings read alike, the source gives them in different places.

Tests used:
[1] = tested on: excitotoxic cell injury paradigm; assay: Cell death in an excitotoxic cell injury paradigm; type: cell-based, human
Protocol: Neuronal viability was quantified using MTT [3-(4,5-dimethylthiazol-2-yl-)-2,5-diphenyl-2H-tetrazolium bromide; Sigma]. […] Cellular excitotoxicity was achieved via glutamate activation (3 mM).

[2] = tested on: COX-2; assay: COX-2 expression, immunohistochemistry, human derived microglial cells (Example 4); type: cell-based; conditions: 2 μg/ml, N = 9
Protocol: (§1) Immunohistochemistry (Protein Level) Assay: Cells were fixed for 10 min with 4% paraformaldehyde (PFA) in PBS. After 3×5 minutes washing with PBS, cells were incubated with primary antibodies (anti-COX2) 1:1000 overnight at 4 °C, and after 3×5 minutes washing in PBS, cells were then incubated in appropriate fluorescent secondary antibody 1:250 (Invitrogen) for 2 hours at room temperature. After a final wash, as previous, cells nuclei were sained with DAPI in the mounting media. Photomicrographs were taken of the cells in three fields of view per well from duplicate wells and analysed using Fiji for area coverage of each marker.
(§2) The tubes are then placed in a sonication bath for 10 mins at 35-40 C. Upon completion of the sonication samples are then placed in a tray shaker (200 rpm) for 30 minutes at room temperature. Once completed the samples are then centrifuged at 4400 rpm for 5 minutes. The supernatant is collected for testing and development.
(§3) For the CBD sample, a pure standard (in powder form) was used. CBD 98% isolate was purchased as a reference standard from LGC Standards (London UK) (CAS No. 13956-29-1). The CBD standard reference was prepared at concentration of 1 mg/ml (in acetonitrile). CBD dilutions were made in acetonitrile as follows: 2 μg/ml; 6 μg/ml; and 0.1 μg/ml.

[3] = tested on: IL-12; assay: IL-12 level in microglial media, multiplex cytokine assay (Example 4); type: cell-based, human; conditions: 2 μg/ml; interleukin and interferon activation; control 99.91
Protocol: (§4) Multiplex Cytokine/Chemokine Assay: Microglia media harvested following treatment initiation was centrifuged briefly to remove particulates (300 g for 10 min). Cytokine and chemokine levels in the microglial media were measured using a Bio-Plex 200 with a 96-well magnetic plate assay according to the manufacturer's instructions (Bio-Rad). Cytokines and chemokines measured included IL-1α, IL-1β, IL-2, IL-6, IL-10, IL-12 (p70), IL-13, G-CSF, GM-CSF, IFNγ, TNFα, CXCL1 (KC), CCL2 (MCP-1), and CCL5 (RANTES). All samples were run in duplicate and data were analyzed with the Bio-Plex Manager software.
as §2, §3

[4] = tested on: TNF-alpha; assay: TNF-alpha level in microglial media, multiplex cytokine assay (Example 4); type: cell-based, human; conditions: 2 μg/ml; interleukin and interferon activation
Protocol: as §4, §2, §3

[5] = tested on: COX-2; assay: COX-2 activity, immunohistochemistry, human derived microglial cells, diclofenac combination (Example 6); type: cell-based; design: unit not given here; conditions: 2 μg/ml each, I&I inflammation activation, N = 9
Protocol: as §1, with “Human derived microglial cells” for “Immunohistochemistry (Protein Level) Assay: Cells”
COX-2 is measured using the immunohistochemistry assay—as described above. […] In the treatment groups, these cells are also treated with various treatments and COX-2 expression is then assessed following these treatments (1 hr after treatment).
as §2, with “In this example, ethanol extraction was used. […] The tubes” for “The tubes”
For the CBD sample, a pure standard (in powder form) was used. CBD 98% isolate was purchased as a reference standard from LGC Standards (London UK) (CAS No. 13956-29-1). […]

[6] = tested on: human microglial cells; assay: DAPI cell viability stain (Example 4); type: cell-based
[7] = tested on: cannabinoid receptor type 1 (CB1); conditions: cited from earlier work
[8] = tested on: cannabinoid receptor type 2 (CB2); conditions: cited from earlier work
[9] = tested on: neutrophil; conditions: cited from earlier work
[10] = animals; cited from earlier work
[11] = Stability of NTI164 oil formulation at room temperature (UPLC)
[12] = tested on: TNF-a; assay: TNF-a release from BV2 microglia, celecoxib combination (Example 7); type: cell-based; conditions: Celebrex 5 uM; NTI164 7.5 uM (as headed); combination Celebrex 5 uM + NTI164 7.5 ug/ml; activated control 45
Protocol: (§5) The immortalized microglia cell line, BV2, was purchased from the American Tissue Culture Collection. BV2 were cultured in RPMI media containing gentamycin and supplemented with 10% fetal bovine serum (FBS) for expansion and 5% FBS when plated for experiments. All cells were from between passage numbers 39 and 45. Cells were plated at […] and treated 24 hours after plating with phosphate buffered saline (PBS, as a control) or interleurkin-1B+interferon-γ (IL-1B+IFNγ, to induce inflammation).
as §4, with “Microglia” for “Multiplex Cytokine/Chemokine Assay: Microglia”, “that” for “and data”, “averaged for analysis, at least three samples per group were run.” for “analyzed with the Bio-Plex Manager software.”

[13] = tested on: IL-6; assay: IL-6 release from BV2 microglia, celecoxib combination (Example 7); type: cell-based; conditions: Celebrex 5 uM; NTI164 7.5 uM (as headed); combination Celebrex 5 uM + NTI164 7.5 ug/ml; activated control 366.33
Protocol: as §5
as §4, with “Microglia” for “Multiplex Cytokine/Chemokine Assay: Microglia”, “that” for “and data”, “averaged for analysis, at least three samples per group were run.” for “analyzed with the Bio-Plex Manager software.”

[14] = tested on: IL-1a; assay: IL-1a release from BV2 microglia, celecoxib combination (Example 7); type: cell-based; conditions: Celebrex 5 uM; NTI164 7.5 uM (as headed); combination Celebrex 5 uM + NTI164 7.5 ug/ml; activated control 154.83
Protocol: as §5
as §4, with “Microglia” for “Multiplex Cytokine/Chemokine Assay: Microglia”, “that” for “and data”, “averaged for analysis, at least three samples per group were run.” for “analyzed with the Bio-Plex Manager software.”

[15] = tested on: GM-CSF; assay: GM-CSF release from BV2 microglia, celecoxib combination (Example 7); type: cell-based; conditions: Celebrex 5 uM; NTI164 7.5 uM (as headed); combination Celebrex 5 uM + NTI164 7.5 ug/ml; activated control 768.13
Protocol: as §5
as §4, with “Microglia” for “Multiplex Cytokine/Chemokine Assay: Microglia”, “that” for “and data”, “averaged for analysis, at least three samples per group were run.” for “analyzed with the Bio-Plex Manager software.”

[16] = tested on: TNF-a; assay: TNF-a, prednisone combination (Example 8); type: cell-based; conditions: PDN 5 uM; NTI164 7.5 ug/ml; combination PDN 5 uM + NTI164 7.5 ug/ml; activated control 45
Text: (§6) Student's t-test was used for statistical analysis.

[17] = tested on: IL-6; assay: IL-6, prednisone combination (Example 8); type: cell-based; conditions: PDN 5 uM; NTI164 7.5 ug/ml; combination PDN 5 uM + NTI164 7.5 ug/ml; activated control 366.33
Text: as §6

[18] = tested on: IL-1a; assay: IL-1a, prednisone combination (Example 8); type: cell-based; conditions: PDN 5 uM; NTI164 7.5 ug/ml; combination PDN 5 uM + NTI164 7.5 ug/ml; activated control 154.83
Text: as §6

[19] = tested on: GM-CSF; assay: GM-CSF, prednisone combination (Example 8); type: cell-based; conditions: PDN 5 uM; NTI164 7.5 ug/ml; combination PDN 5 uM + NTI164 7.5 ug/ml; activated control 768.13
Text: as §6

[20] = in vitro, at low concentrations

## C=C(C)[C@@H]1CCC(C)=C[C@H]1c1c(O)cc(CCCCC)cc1O [CBD, Cannabidiol]
[1]
  Toxicity / effect on cell number and cell viability: toxic in this paradigm
[2]; exposure 1 hour after inflammatory insult (interleukin and interferon gamma), control 104.26
  COX-2 expression, average +/- SEM, exposure after inflammatory insult: 76.32 +/− 7.95 (SEM)
[2]; exposure 1 hour prior to inflammatory insult (interleukin and interferon gamma), control 94.47
  COX-2 expression, average +/- SEM, exposure before inflammatory insult: 84.82 +/− 7.65 (SEM)
[3]
  IL-12, average +/- SD: 84.40 +/− 6.54
[4]
  TNF-alpha, average +/- SD: 71.13 +/− 12.81
[5]; 1 hr after treatment
  COX-2 activity, individual replicate: 42.4 and 44.92 and 109.99 and 136.99 and 117.84 and 43.14 and 77.81 and 59.02 and 73.8
[5]; activated control mean 101.39
  COX-2 activity, mean: 78.43
[6]
  Cell death by DAPI cell viability stain: DAPI cell viability stain: No cell death was detected and assessed as per the DAPI cell staining method.
[7]
  Allosteric modulation of CB1: negative allosteric modulator of CB1
[7]; compared to Δ9-THC
  Affinity for CB1: low affinity
[7]; [20]
  CB1 antagonistic effect: weak CB1 and CB2 antagonistic effect
[7]; listed as Cannabidiol
  Allosteric modulation of CB1: negative allosteric modulator of the cannabinoid CB1 receptor
[8]; compared to Δ9-THC
  Affinity for CB2: low affinity
[8]; [20]
  CB2 antagonistic effect: weak CB1 and CB2 antagonistic effect
[9]
  Neutrophil chemotaxis and proliferation: inhibit neutrophil chemotaxis and proliferation
[10]
  Oral bioavailability: 13-19%
[11]
  Cannabinoid content of NTI164, Day 14: 0.56 mg/mL
[11]; NTI164 oil, room temperature, Day 0
  Cannabinoid content of NTI164, Day 0: 0.46 mg/mL
[11]; NTI164 oil, room temperature, Day 2
  Cannabinoid content of NTI164, Day 2: 0.56 mg/mL
[11]; NTI164 oil, room temperature, Day 7
  Cannabinoid content of NTI164, Day 7: 0.53 mg/mL
[11]; NTI164 oil, room temperature, Day 28
  Cannabinoid content of NTI164, Day 28: 0.54 mg/mL
[11]; NTI164 oil, room temperature, Week 5
  Cannabinoid content of NTI164, Week 5: 0.60 mg/mL
[11]; NTI164 oil, room temperature, Week 6
  Cannabinoid content of NTI164, Week 6: 0.51 mg/mL
[11]; NTI164 oil, room temperature, Week 32
  Cannabinoid content of NTI164, Week 32: 0.48 mg/mL

## Cc1ccc(-c2cc(C(F)(F)F)nn2-c2ccc(S(N)(=O)=O)cc2)cc1 [Celebrex, celecoxib]
[12]
  TNF-a: 30.17
[13]
  IL-6: 128.50
[14]
  IL-1a: 112.5
[15]
  GM-CSF: 511.97

## C[C@]12C=CC(=O)C=C1CC[C@@H]1[C@@H]2C(=O)C[C@@]2(C)[C@H]1CC[C@]2(O)C(=O)CO [PDN, Prednisone]
[16]
  TNF-a: 30.17
[17]
  IL-6: 228.50
[18]
  IL-1a: 144.5
[19]
  GM-CSF: 611.97
